From patent US9586951B2 (FUJIFILM Corporation, priority 2013, dated 2017)

Columns and labels:
ATM = biological target: T1, ATM (Homo sapiens, UniProt Q13315); assay: ATM inhibition test (phosphorylation of Chk2 generated by ionizing radiation, AlphaScreen SureFire); type: cell-based; details: phosphorylated Chk2 in NCI-H460 cells, ionizing radiation 8Gy, 1 hour after test compound treatment; read-out: ATM inhibitory activity
T1 construct: detecting phosphorylation of Chk2 in a human non-small cell lung cancer cell line NCI-H460 (ATCC company); host or cells: NCI-H460 human non-small cell lung cancer cells
Method in brief: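 NCI-H460 cells, compound 1 h pre-treatment, 8Gy IR, further 1 h at 37° C in 5% CO2. Read-out: phospho-Chk2 via AlphaScreen SureFire. % inhibition relative to IR-induced signal window (irradiated vs non-irradiated drug-free wells).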

[1] = tested on: human non-small cell lung cancer cell line NCI-H460; assay: Cell proliferation inhibition test by sensitivity-enhancing to ionizing radiation (Cell Titer Glo); type: cell-based; details: concentration in which SER became 2, NCI-H460 cells, ionizing radiation 2 Gy, cultured 120 hour
Method in brief: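 Radiosensitisation measured as SER, a ratio of Cell Titer Glo luminescence in irradiated vs unirradiated plates relative to DMSO; SER2, the concentration yielding SER 2, came from sigmoidal regression. Compound (0.1% DMSO) was given 24 h post-seeding, 2 Gy applied 30 min later, then 120 hour culture at 37° C.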

T1 sequence (Q13315 whole entry): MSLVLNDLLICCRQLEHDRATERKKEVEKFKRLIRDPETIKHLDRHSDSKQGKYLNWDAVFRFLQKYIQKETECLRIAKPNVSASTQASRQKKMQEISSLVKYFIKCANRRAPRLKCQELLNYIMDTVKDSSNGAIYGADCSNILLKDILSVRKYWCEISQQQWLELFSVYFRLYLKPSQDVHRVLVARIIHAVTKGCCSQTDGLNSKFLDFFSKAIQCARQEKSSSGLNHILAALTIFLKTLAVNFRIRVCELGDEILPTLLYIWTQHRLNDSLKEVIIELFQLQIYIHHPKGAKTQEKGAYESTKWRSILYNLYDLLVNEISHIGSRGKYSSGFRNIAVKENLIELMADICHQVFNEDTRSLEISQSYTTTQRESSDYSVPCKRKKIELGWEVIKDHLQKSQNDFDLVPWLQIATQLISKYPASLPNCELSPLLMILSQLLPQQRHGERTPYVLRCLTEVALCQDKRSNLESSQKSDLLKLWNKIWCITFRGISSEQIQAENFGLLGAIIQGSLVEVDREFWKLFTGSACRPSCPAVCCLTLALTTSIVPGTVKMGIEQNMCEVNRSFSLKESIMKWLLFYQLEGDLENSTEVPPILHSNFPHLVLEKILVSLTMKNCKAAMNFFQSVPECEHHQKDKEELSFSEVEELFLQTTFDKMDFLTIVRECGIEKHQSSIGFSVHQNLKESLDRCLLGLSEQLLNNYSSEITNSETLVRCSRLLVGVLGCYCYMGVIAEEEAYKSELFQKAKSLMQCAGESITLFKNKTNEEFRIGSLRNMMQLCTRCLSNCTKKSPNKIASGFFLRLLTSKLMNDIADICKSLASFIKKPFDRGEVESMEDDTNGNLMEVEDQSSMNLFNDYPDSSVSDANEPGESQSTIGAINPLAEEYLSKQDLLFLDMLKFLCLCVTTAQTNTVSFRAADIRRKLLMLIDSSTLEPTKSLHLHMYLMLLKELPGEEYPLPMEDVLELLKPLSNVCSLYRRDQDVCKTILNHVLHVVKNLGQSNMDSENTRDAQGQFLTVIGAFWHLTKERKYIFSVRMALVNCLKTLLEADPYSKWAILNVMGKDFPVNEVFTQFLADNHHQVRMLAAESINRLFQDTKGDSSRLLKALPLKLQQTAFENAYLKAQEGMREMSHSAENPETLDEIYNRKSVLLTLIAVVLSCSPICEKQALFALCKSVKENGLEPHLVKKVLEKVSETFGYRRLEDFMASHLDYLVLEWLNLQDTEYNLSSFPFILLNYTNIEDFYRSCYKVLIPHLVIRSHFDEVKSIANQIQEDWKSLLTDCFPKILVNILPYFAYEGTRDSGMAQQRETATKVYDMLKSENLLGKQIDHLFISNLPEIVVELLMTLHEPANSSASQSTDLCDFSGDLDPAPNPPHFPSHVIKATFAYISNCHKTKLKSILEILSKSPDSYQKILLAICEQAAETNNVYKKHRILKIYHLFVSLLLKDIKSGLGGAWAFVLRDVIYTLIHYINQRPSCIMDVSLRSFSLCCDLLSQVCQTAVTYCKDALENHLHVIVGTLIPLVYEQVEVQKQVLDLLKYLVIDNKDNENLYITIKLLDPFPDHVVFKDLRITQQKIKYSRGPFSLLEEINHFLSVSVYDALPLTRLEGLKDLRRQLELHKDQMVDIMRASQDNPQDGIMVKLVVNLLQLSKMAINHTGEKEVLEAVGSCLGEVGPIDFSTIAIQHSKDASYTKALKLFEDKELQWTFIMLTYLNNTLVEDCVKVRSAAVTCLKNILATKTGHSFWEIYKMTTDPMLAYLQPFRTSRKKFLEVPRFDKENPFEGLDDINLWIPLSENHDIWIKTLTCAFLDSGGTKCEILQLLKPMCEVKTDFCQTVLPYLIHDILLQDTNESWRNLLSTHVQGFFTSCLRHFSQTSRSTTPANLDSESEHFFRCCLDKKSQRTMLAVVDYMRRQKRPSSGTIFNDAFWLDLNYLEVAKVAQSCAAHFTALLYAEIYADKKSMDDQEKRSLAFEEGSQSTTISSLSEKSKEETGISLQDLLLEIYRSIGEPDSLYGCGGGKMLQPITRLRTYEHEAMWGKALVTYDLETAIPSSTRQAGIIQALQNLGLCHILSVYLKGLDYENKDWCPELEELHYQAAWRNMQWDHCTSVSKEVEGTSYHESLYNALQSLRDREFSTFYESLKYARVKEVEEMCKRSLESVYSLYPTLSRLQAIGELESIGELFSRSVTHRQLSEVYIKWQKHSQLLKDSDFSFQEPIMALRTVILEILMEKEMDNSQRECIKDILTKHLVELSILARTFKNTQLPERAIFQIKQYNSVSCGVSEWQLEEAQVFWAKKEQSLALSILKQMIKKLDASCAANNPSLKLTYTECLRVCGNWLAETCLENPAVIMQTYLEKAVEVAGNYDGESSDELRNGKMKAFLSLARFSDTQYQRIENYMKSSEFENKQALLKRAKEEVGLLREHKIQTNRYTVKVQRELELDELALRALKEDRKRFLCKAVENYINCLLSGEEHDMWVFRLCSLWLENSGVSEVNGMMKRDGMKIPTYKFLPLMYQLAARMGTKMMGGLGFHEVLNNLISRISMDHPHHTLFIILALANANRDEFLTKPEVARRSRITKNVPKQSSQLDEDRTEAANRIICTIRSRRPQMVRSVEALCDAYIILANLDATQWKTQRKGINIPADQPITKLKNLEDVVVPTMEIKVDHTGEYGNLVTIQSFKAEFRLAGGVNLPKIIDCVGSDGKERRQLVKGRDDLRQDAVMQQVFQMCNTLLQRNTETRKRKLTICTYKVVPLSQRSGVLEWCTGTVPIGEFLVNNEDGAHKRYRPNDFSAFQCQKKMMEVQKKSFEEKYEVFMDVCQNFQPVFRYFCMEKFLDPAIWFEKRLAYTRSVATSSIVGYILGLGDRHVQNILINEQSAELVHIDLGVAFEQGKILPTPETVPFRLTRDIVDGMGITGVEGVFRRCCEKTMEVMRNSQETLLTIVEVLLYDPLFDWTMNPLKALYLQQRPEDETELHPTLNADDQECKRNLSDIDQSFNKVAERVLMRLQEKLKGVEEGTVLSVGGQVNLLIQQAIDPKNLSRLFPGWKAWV

Structure (SMILES)	IC50 (ATM) [nM]	SER2 (concentration at which the radiation sensitivity-enhancement ratio reaches 2) ([1]; Homo sapiens, NCI-H460, 120 h) [nM]	SER2 (concentration at which the radiation sensitivity-enhancement ratio reaches 2) [1] [nM]	SER2 (concentration at which the radiation sensitivity-enhancement ratio reaches 2) ([1]; Homo sapiens) [nM]
COc1cccc(CNc2ccc3c(c2)Sc2cccc(-c4cc(N5CCOCC5)cc(=O)[nH]4)c2O3)n1 [Example 4-8-18, 6-(8-(((6-Methoxypyridin-2-yl)methyl)amino)phenoxathiin-4-yl)-4-morpholino pyridin-2 (1H)-one]	< 100	100 to 500		
CNc1ccc(CNc2ccc3c(c2)Sc2cccc(-c4cc(N5CCOCC5)cc(=O)[nH]4)c2O3)cn1 [Example 4-4-6, 6-(8-(((6-(Methylamino)pyridin-3-yl)methyl)amino)phenoxathiin-4-yl)-4-morpholino pyridin-2(1H)-one]	< 100	500 to 2000		
CC(CN1CCOCC1)Nc1ccc2c(c1)Sc1cccc(-c3cc(N4CCOCC4)cc(=O)[nH]3)c1S2 (single isomer, unassigned) [Example 1-13-2-2, 4-morpholino-6-(7-((1-morpholinopropan-2-yl)amino)thianthren-1-yl)pyridin-2(1H)-one]	< 100	< 100		
COC[C@H](CN1C[C@@H](C)O[C@@H](C)C1)Nc1ccc2c(c1)Sc1cccc(-c3cc(N4CCOCC4)cc(=O)[nH]3)c1S2 [Example 1-46-11, 6-(7-(((S)-1-((2S,6R)-2,6- Dimethylmorpholino)-3-methoxypropan-2-yl)amino)thianthren-1-yl)-4-morpholino pyridin-2(1H)-one]	< 100	< 100		
N#Cc1cccc(CNc2ccc3c(c2)Sc2cccc(-c4cc(N5CCOCC5)cc(=O)[nH]4)c2S3)n1 [Example 1-12-38, 6-(((6-(4-Morpholino-6-oxo-1,6-dihydropyridin-2-yl)thianthren-2-yl)amino)methyl)picolinonitrile]	< 100	< 100		
Cc1ccc(C2(Nc3ccc4c(c3)Sc3cccc(-c5cc(N6CCOCC6)cc(=O)[nH]5)c3S4)COC2)nc1 [Example 1-50-4, 6-(7-((3-(5-Methylpyridin-2-yl)oxetan-3-yl)amino)thianthren-1-yl)-4-morpholino pyridin-2(1H)-one]	< 100	100 to 500		
O=c1cc(N2CCOCC2)cc(-c2cccc3c2Sc2ccc(NCCN4CCOCC4)cc2S3)[nH]1 [Example 1-10-7, 4-Morpholino-6-(7-((2-morpholinoethyl)amino)thianthren-1-yl)pyridin-2 (1H)-one]	< 100	100 to 500		
O=c1cc(N2CCOCC2)cc(-c2cccc3c2Sc2ccc(NC4CCN(Cc5cccnc5)CC4)cc2S3)[nH]1 [Example 1-24-17, 4-Morpholino-6-(7-((1-(pyridin-3-ylmethyl)piperidin-4-yl)amino)thianthren-1-yl)pyridin-2 (1H)-one]	< 100	100 to 500		
CC(CN1CCN(c2ccccn2)CC1)Nc1ccc2c(c1)Sc1cccc(-c3cc(N4CCOCC4)cc(=O)[nH]3)c1S2 (centres unmarked) [Example 1-13-17, 4-Morpholino-6-(7-((1-(4-(pyridin-2-yl)piperazin-1-yl)propan-2-yl)amino)thianthren-1-yl)pyridin-2 (1H)-one]	< 100	100 to 500		
Cc1ccc(C(C)Nc2ccc3c(c2)Sc2cccc(-c4cc(N5CCOCC5)cc(=O)[nH]4)c2S3)nc1 (single isomer, unassigned) [Example 1-12-143-1, 6-(7-((1-(5-methylpyridin-2-yl)ethyl)amino)thianthren-1-yl)-4-morpholinopyridin-2(1H)-one]	< 100	< 100		
Cc1ccc(CNc2ccc3c(c2)Sc2cccc(-c4cc(N5CCOCC5)cc(=O)[nH]4)c2O3)cn1 [Example 4-8-23, 6-(8-(((6-Methylpyridin-3-yl)methyl)amino)phenoxathiin-4-yl)-4-morpholino pyridin-2(1H)-one]	< 100	100 to 500		
Cc1ccc(CNc2ccc3c(c2)Cc2cccc(-c4cc(N5CCOCC5)cc(=O)[nH]4)c2O3)nc1 [Example 2-2-41, 6-(7-(((5-Methylpyridin-2-yl)methyl)amino)-9H-xanthen-4-yl)-4-morpholino pyridin-2(1H)-one]	100 to 500	100 to 500		
CC(Nc1ccc2c(c1)Cc1cccc(-c3cc(N4CCOCC4)cc(=O)[nH]3)c1O2)c1nccc(CF)n1 (centres unmarked) [Example 2-14-61, 6-(7-((1-(4-(Fluoromethyl)pyrimidin-2-yl)ethyl)amino)-9H-xanthen-4-yl)-4-morpholino pyridin-2(1H)-one]	< 100	< 100		
Cc1cccc(C(CO)Nc2ccc3c(c2)Sc2cccc(-c4cc(N5CCOCC5)cc(=O)[nH]4)c2S3)n1 (single isomer, unassigned) [Example 1-12-140-2, 6-(7-((2-hydroxy-1-(6-methylpyridin-2-yl)ethyl)amino)thianthren-1-yl)-4-morpholinopyridin-2(1H)-one]	< 100	< 100		
Cc1cccc(C(CO)Nc2ccc3c(c2)Cc2cccc(-c4cc(N5CCOCC5)cc(=O)[nH]4)c2O3)n1 (single isomer, unassigned) [Example 2-14-92-2, 6-(7-((2-hydroxy-1-(6-methylpyridin-2-yl)ethyl)amino)-9H-xanthen-4-yl)-4-morpholinopyridin-2(1H)-one]	100 to 500	< 100		
COCC(Nc1ccc2c(c1)Sc1cccc(-c3cc(N4CCOCC4)cc(=O)[nH]3)c1S2)c1ncc(C)cn1 (centres unmarked) [Example 1-12-96, 6-(7-((2-Methoxy-1-(5-methylpyrimidin-2-yl)ethyl)amino)thianthren-1-yl)-4-morpholino pyridin-2(1H)-one]	< 100	100 to 500		
O=c1cc(N2CCOCC2)cc(-c2cccc3c2Oc2ccc(NCc4cncc(N5CCC5)c4)cc2C3)[nH]1 [Example 2-2-69, 6-(7-(((5-(Azetidin-1-yl)pyridin-3-yl)methyl)amino)-9H-xanthen-4-yl)-4-morpholino pyridin-2(1H)-one]	< 100	500 to 2000		
O=c1cc(N2CCOCC2)cc(-c2cccc3c2Sc2ccc(N[C@@H]4CCCC[C@@H]4N4CCOCC4)cc2S3)[nH]1 [Example 1-48-2, 4-Morpholino-6-(7-(((1R,2S)-2-morpholinocyclohexyl)amino)thianthren-1-yl)pyridin-2(1H)-one]	< 100	< 100		
COC[C@H](CN1CCOC(C)(C)C1)Nc1ccc2c(c1)Sc1cccc(-c3cc(N4CCOCC4)cc(=O)[nH]3)c1S2 [Example 1-46-9, (S)-6-(7-((1-(2,2-Dimethylmorpholino)-3-methoxypropan-2-yl)amino)thianthren-1-yl)-4-morpholino pyridin-2(1H)-one]	< 100	100 to 500		
Cc1cccc(C(CCN(C)C)Nc2ccc3c(c2)Sc2cccc(-c4cc(N5CCOCC5)cc(=O)[nH]4)c2S3)n1 (single isomer, unassigned) [Example 1-22-11-2, 6-(7-((3-(dimethylamino)-1-(6-methylpyridin-2-yl)propyl)amino)thianthren-1-yl)-4-morpholinopyridin-2(1H)-one]	< 100		< 100	
Cc1cccc(C(Nc2ccc3c(c2)Sc2cccc(-c4cc(N5CCOCC5)cc(=O)[nH]4)c2S3)C2CCCN(C)C2)n1 (single isomer, unassigned) [Example 1-22-5, 6-(7-(((1-Methylpiperidin-3-yl)(6-methylpyridin-2-yl)methyl)amino)thianthren-1-yl)-4-morpholino pyridin-2 (1H)-one]	< 100		100 to 500	
O=c1cc(N2CCOCC2)cc(-c2cccc3c2Oc2ccc(NCc4cccs4)cc2C3)[nH]1 [Example 2-13-6, 4-Morpholino-6-(7-((thiophen-2-ylmethyl)amino)-9H-xanthen-4-yl) pyridin-2(1H)-one]	< 100	500 to 2000		
O=c1cc(N2CCOCC2)cc(-c2cccc3c2Oc2ccc(NCc4ccnc(Br)c4)cc2C3)[nH]1 [Example 2-2-53, 6-(7-(((2-Bromopyridin-4-yl)methyl)amino)-9H-xanthen-4-yl)-4-morpholino pyridin-2 (1H)-one]	< 100	500 to 2000		
O=c1cc(N2CCOCC2)cc(-c2cccc3c2Sc2ccc(NC(CF)CN4CCCCC4)cc2S3)[nH]1 (centres unmarked) [Example 1-41-2, 6-(7-((1-Fluoro-3-(piperidin-1-yl)propan-2-yl)amino)thianthren-1-yl)-4-morpholinopyridin-2(1H)-one]	< 100			100 to 500
COc1ccnc(C(C)Nc2ccc3c(c2)Sc2cccc(-c4cc(N5CCOCC5)cc(=O)[nH]4)c2S3)n1 (centres unmarked) [Example 1-12-77, 6-(7-((1-(4-Methoxypyrimidin-2-yl)ethyl)amino)thianthren-1-yl)-4-morpholino pyridin-2(1H)-one]	< 100	100 to 500		
